The numbers were not newly measured in patent publication US20140066461A1, “METHODS FOR DIAGNOSING AND TREATING SCHIZOPHRENIA” (priority 2012, published 2014), which cites them from elsewhere.

Data set [1] concerns the target BTK (Homo sapiens, UniProt Q06187).
The test system of data set [2] is rats.
In data set [3] the test system is rats. This is another data set of the same source.
The test system of data set [4] is patients with previously treated mantle cell lymphoma.
The subject of data set [5] is protein tyrosine phosphatases.

BTK, sequence (Q06187 whole entry): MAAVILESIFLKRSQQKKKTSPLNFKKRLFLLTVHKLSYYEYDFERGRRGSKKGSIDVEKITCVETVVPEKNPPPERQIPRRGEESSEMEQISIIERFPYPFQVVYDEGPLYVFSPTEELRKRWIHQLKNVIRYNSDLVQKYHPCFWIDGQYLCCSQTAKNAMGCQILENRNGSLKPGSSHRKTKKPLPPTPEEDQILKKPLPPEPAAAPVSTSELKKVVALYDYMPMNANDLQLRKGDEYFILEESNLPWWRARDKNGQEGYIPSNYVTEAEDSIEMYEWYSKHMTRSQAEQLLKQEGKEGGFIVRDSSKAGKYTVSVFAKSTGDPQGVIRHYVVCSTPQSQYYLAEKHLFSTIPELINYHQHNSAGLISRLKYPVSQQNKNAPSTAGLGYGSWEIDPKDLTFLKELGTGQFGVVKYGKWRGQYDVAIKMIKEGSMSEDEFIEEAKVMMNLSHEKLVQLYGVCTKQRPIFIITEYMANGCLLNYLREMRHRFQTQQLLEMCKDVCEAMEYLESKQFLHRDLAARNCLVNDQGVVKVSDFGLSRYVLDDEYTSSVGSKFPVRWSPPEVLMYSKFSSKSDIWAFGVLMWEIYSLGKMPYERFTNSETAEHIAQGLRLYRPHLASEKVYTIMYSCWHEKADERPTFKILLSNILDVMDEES

Turning to `Nc1ncnc2c1c(-c1ccc(Oc3ccccc3)cc1)nn2C1CCCC1` [PCI-29732], the “mode of BTK inhibition” value in data set [1] was “reversible BTK inhibitor”.
Consider `O=C(CCCN1CCC(O)(c2ccc(Cl)cc2)CC1)c1ccc(F)cc1` [haloperidol], for which, in data set [2], the “picrotoxin effect on prepulse inhibition of startle” value is “reduces this effect”. Besides, the “effects of amphetamine on attention” value in data set [3] is recorded as “reverse the effects of amphetamine on attention in rats”.
Consider `C=CC(=O)N1CCC[C@@H](n2nc(-c3ccc(Oc4ccccc4)cc3)c3c(N)ncnc32)C1` [PCI-32765], for which the complete responses entry in data set [4] (560 mg/day) is given as “About 15%”. Also, the “objective responses (partial plus complete)” value in data set [4] (560 mg/day, 51 patients evaluable for efficacy, early in the trial) is 69%. For the same compound, the “effect on lymph nodes” value in data set [4] (MCL study, accompanied by large increases in lymphocyte counts in circulation) is given as “rapid shrinkage of lymph nodes swollen with malignant cells”. Besides, in data set [4] (preliminary data, ongoing phase II trial), the “patients exhibiting complete or partial responses” value is on record as “About two-thirds”. For the same compound, the toxicity result in data set [4] (small trials, mantle cell lymphoma) is given as “low toxicity”.
Take `Cc1ccc(S(=O)(=O)/C=C/C#N)cc1` [BAY-11-7082]: the “inhibition of protein tyrosine phosphatases” value in data set [5] was “act as inhibitors of protein tyrosine phosphatases”.
